Results from ChEMBL document CHEMBL1150616, “Schizopeptin 791, a new anabeanopeptin-like cyclic peptide from the cyanobacterium Schizothrix sp” (J Nat Prod, 2002).
Converted amounts (≈) assume the structure as drawn. The source made the active and inactive calls. The calls are words filed in the database; no cut-off is given here.

What was measured:
[1] = Inhibition of trypsin
[2] = Inhibition of chymotrypsin at 45 ug/mL

IC50 [1]: 45 µg/mL (≈ 56.8 µM)
Activity [2]: inactive
Structure (SMILES): CC[C@H](C)[C@H](NC(=O)N[C@@H]1CCCCNC(=O)[C@H](Cc2ccccc2)NC(=O)[C@H](C)N(C)C(=O)[C@H](CCc2ccccc2)NC(=O)[C@H]([C@@H](C)CC)NC1=O)C(=O)O [Schizopeptin 791]
